Source: PubChem BioAssay (NCI)
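96-well plates; 48 h exposure; 5 concentrations. Endpoints by linear interpolation between flanking doses. Not reached: highest tested concentration assigned. Here, GI50 denotes the concentration required for 50% inhibition of growth. TGI: concentration producing complete growth inhibition.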

Key:
Test in all cases: NCI-60 cell line screen, 48 h
ACHN renal = tested on: ACHN renal
HCT-15 colon = tested on: HCT-15 colon
HOP-62 NSCLC = tested on: HOP-62 NSCLC
MDA-MB-231 breast = tested on: MDA-MB-231 breast
NCI-H226 lung = tested on: NCI-H226 lung
OVCAR-3 ovarian = tested on: OVCAR-3 ovarian
SK-OV-3 ovarian = tested on: SK-OV-3 ovarian
SR leukemia = tested on: SR leukemia
UACC-62 melanoma = tested on: UACC-62 melanoma
UO-31 renal = tested on: UO-31 renal

Row | SMILES | GI50 (ACHN renal) | TGI (ACHN renal) | GI50 (HCT-15 colon) | TGI (HCT-15 colon) | GI50 (HOP-62 NSCLC) | TGI (HOP-62 NSCLC) | GI50 (MDA-MB-231 breast) | TGI (MDA-MB-231 breast) | GI50 (NCI-H226 lung) | TGI (NCI-H226 lung) | GI50 (OVCAR-3 ovarian) | TGI (OVCAR-3 ovarian) | GI50 (SK-OV-3 ovarian) | TGI (SK-OV-3 ovarian) | GI50 (SR leukemia) | TGI (SR leukemia) | GI50 (UACC-62 melanoma) | TGI (UACC-62 melanoma) | GI50 (UO-31 renal) | TGI (UO-31 renal)
1 | Cc1nc2sc(C(=O)Nc3cccc(Br)c3C)c(N)c2cc1C(O)c1ccccc1 (stereo unspecified) | 0.0743 µM | 14.3 µM | 0.0348 µM | 11.5 µM | 0.0549 µM | 18.5 µM | 0.0473 µM | 5.66 µM | 0.546 µM | 22.4 µM | 0.032 µM | 1.02 µM | 0.0609 µM | 75.8 µM | 0.0374 µM | > 100 µM | 0.0566 µM | 9.59 µM | 0.0643 µM | 12.5 µM
2 | C[C@]12CC[C@H](O[C@@H]3O[C@H](CO[C@@H]4O[C@H](CO)[C@@H](O)[C@H](O)[C@H]4O)[C@@H](O)[C@H](O)[C@H]3O)C[C@@H]1CC[C@@H]1[C@@H]2CC[C@]2(C)[C@@H](C3=CC(=O)OC3)CC[C@]12O | – | > 100 µM | – | 42.9 µM | – | 31.1 µM | – | > 100 µM | – | > 95.8 µM | – | > 74.1 µM | – | > 72.6 µM | – | > 100 µM | – | > 80.4 µM | – | > 66.5 µM
3 | NS(=O)(=O)c1ccc(N=Nc2ccc[nH]c2=O)cc1 | – | > 100 µM | – | > 100 µM | – | > 100 µM | – | > 100 µM | – | > 100 µM | – | > 100 µM | – | > 100 µM | – | > 100 µM | – | > 100 µM | – | > 100 µM
4 | NC(=O)c1c(NC(=O)c2cccs2)sc2c1CCC(=O)C2 | 2.16 µM | 8.88 µM | 1.65 µM | 17.9 µM | 3.65 µM | > 100 µM | 1.99 µM | 6.28 µM | 3.96 µM | 48.3 µM | 1.8 µM | 5.93 µM | – | – | 1.43 µM | > 100 µM | 0.811 µM | 4.43 µM | 1.58 µM | 10.1 µM
5 | O=C(O)CCC(c1ccccc1)(c1ccccc1)c1ccccc1 | – | > 100 µM | – | > 100 µM | – | > 100 µM | – | > 100 µM | – | > 100 µM | – | > 69.6 µM | – | > 100 µM | – | > 89 µM | – | > 100 µM | – | > 100 µM
6 | COc1cccc2c1C(=O)c1c(O)c3c(c(O)c1C2=O)C[C@@](O)(/C(CO)=N/NC(=O)CCCCCN1C(=O)C=CC1=O)C[C@@H]3O[C@H]1C[C@H](N)[C@H](O)[C@H](C)O1 | 0.717 µM | > 51.5 µM | 7.94 µM | > 100 µM | 0.674 µM | 10.5 µM | 1.96 µM | 44 µM | 0.56 µM | 3.37 µM | 1.89 µM | > 64.4 µM | 1.63 µM | 36.8 µM | 0.109 µM | > 100 µM | 0.621 µM | 3 µM | 3.47 µM | 27.9 µM
7 | C[C@@H](Nc1cc(F)cc(F)c1)c1cc(C(=O)N(C)C)cc2c(=O)cc(N3CCOCC3)oc12 | 3.51 µM | > 100 µM | 14.9 µM | > 100 µM | 7.13 µM | > 100 µM | 24.7 µM | > 100 µM | > 88.2 µM | > 100 µM | 1.25 µM | 61.8 µM | 2.18 µM | > 65.3 µM | 21.9 µM | > 100 µM | 1.13 µM | 20.9 µM | 2.38 µM | > 100 µM
8 | Oc1ccc2c(=S)cc(-c3ccc(Br)cc3)oc2c1O | 2.35 µM | 11.8 µM | 0.853 µM | 12.1 µM | 1.5 µM | 6.73 µM | 1.81 µM | 8.4 µM | 7.22 µM | 39.4 µM | – | – | 2.6 µM | 8.5 µM | 2.54 µM | 38.1 µM | 2.09 µM | 4.85 µM | 1.02 µM | 6.66 µM
9 | CC(=Nc1ccc(N(C)C)cc1)c1ccccc1 | – | 77.1 µM | – | 37.9 µM | – | > 100 µM | – | 35.4 µM | – | > 100 µM | – | 32.2 µM | – | > 100 µM | – | 49.9 µM | – | 33.6 µM | – | 40.7 µM
10 | C#C[C@@]1(O)[C@@H](CO)O[C@@H](n2cc(Br)c3c(Cl)ccnc32)[C@@H]1O | 1.74 µM | > 100 µM | 0.55 µM | > 100 µM | 1.31 µM | > 100 µM | 0.289 µM | 1.94 µM | 1.08 µM | > 27 µM | 0.621 µM | > 75 µM | 3.66 µM | > 100 µM | 1.06 µM | > 100 µM | 15.6 µM | > 100 µM | 2.16 µM | > 100 µM
11 | COC(=O)[C@]12CC[C@@H](C)[C@H](C)[C@@H]1C1=CC[C@@H]3[C@@]4(C)C(C=O)=C[C@@](C)(CO)[C@@H]4[C@H](O)C[C@@]3(C)[C@]1(C)CC2 | 3.47 µM | 12.2 µM | 2.11 µM | 6 µM | 13.8 µM | 29.6 µM | 7.86 µM | 22.3 µM | 13.9 µM | 46.9 µM | 2.54 µM | 7.78 µM | 17 µM | 31.6 µM | 1.92 µM | 6.74 µM | 3.71 µM | 14.8 µM | 2.28 µM | 12.2 µM
12 | CC12OC(CC(O)C1O)n1c3ccccc3c3c4c(c5c6ccccc6n2c5c31)C(=O)N(CCN1CCOCC1)C4=O (stereo unspecified) | 0.526 µM | 1.69 µM | 1.26 µM | 8.21 µM | 1.27 µM | 4.22 µM | 3.04 µM | 11.5 µM | 1.11 µM | 4.01 µM | 1.55 µM | 7.33 µM | 1.19 µM | 4.13 µM | 0.176 µM | 6.76 µM | 0.568 µM | 1.47 µM | 1.04 µM | 5.77 µM
13 | COC(=O)c1c[nH]c2cc(OC(C)C)c(OC(C)C)cc2c1=O | > 100 µM | > 100 µM | > 100 µM | > 100 µM | 79.6 µM | > 100 µM | > 100 µM | > 100 µM | > 100 µM | > 100 µM | > 100 µM | > 100 µM | > 100 µM | > 100 µM | > 100 µM | > 100 µM | > 100 µM | > 100 µM | > 100 µM | > 100 µM
